Among the data in PMC2862721, “The Tegument of the Human Parasitic Worm Schistosoma mansoni as an Excretory Organ: The Surface Aquaporin SmAQP Is a Lactate Transporter” (PLoS ONE, 2010) are IC50 and Km values, retold here.

The target of one data set is T1, SmAQP (Schistosoma mansoni, UniProt C4PYI6).
T1 construct: gene AQP1; 304 aa membrane protein
T1 sequence (C4PYI6 1-304): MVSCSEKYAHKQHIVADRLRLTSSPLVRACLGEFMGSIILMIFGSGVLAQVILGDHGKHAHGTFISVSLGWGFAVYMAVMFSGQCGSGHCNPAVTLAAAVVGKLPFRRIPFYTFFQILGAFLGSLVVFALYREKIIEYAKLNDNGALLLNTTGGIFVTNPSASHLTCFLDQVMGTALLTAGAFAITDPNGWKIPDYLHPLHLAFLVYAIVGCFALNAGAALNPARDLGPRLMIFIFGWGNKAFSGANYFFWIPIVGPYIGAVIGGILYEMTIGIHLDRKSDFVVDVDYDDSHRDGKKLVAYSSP
In words: inhibition of radiolabelled lactate uptake in Xenopus oocytes, variable-slope fit. The class given is cell-based. The note with it: read-out: Ki (half maximal inhibitory concentration); Ki50.

Substrate in data set [1]: C[C@H](O)C(=O)O
In words: cells, lysate or membranes. Type of data set: cell-based, Schistosoma mansoni. As to conditions: 0.1-100 mM lactate; labelled compound; non-injected oocyte values subtracted.

For `O=C(CCc1ccc(O)cc1)c1c(O)cc(O)cc1O` [phloretin], at SmAQP, the IC50 was 22 µM.

B1: SmAQP (Schistosoma mansoni) (protein)
chain: T1 sequence (C4PYI6 1-304)
notes: 304 aa membrane protein
As a reminder, the Km is the concentration of substrate that gives half-maximal velocity. As for B1, in data set [1], the Michaelis constant (Km) was 41 ± 5.8 mM.
